From PMC8530938 (Chemico-biological interactions, 2021)
Where two headings read alike, the source gives them in different places.

How the values were obtained:
yeast ADH1 = conditions: oxidation; ref [77]; cited from earlier work
yeast ADH2 = conditions: oxidation; ref [77]; cited from earlier work
[1] = molecular target: T1, T45G yeast alcohol dehydrogenase (ADH1) (Saccharomyces cerevisiae, UniProt P00330, T46G); experiment: biochemical; format: biochemical
[2] = molecular target: wild-type yeast alcohol dehydrogenase (ADH1); conditions: pH 7.3, 30 °C, ref [21], cited from earlier work
[3] = molecular target: T1, T45G yeast alcohol dehydrogenase (ADH1)
[4] = molecular target: T1, T45G yeast alcohol dehydrogenase (ADH1); experiment: Spectrophotometric titration with NAD+ in the presence of 10 mM pyrazole; format: binding; conditions: titration in the presence of 10 mM pyrazole
horse liver ADH = conditions: cited from earlier work
[5] = molecular target: wild-type yeast enzyme (ADH1); conditions: read-out: Kd of NAD+; pH 8; ref [11]; cited from earlier work
[6] = test system: horse liver ADH1E with S48A substitution; conditions: ref [6]; cited from earlier work

T1 sequence (P00330 2-348 T46G): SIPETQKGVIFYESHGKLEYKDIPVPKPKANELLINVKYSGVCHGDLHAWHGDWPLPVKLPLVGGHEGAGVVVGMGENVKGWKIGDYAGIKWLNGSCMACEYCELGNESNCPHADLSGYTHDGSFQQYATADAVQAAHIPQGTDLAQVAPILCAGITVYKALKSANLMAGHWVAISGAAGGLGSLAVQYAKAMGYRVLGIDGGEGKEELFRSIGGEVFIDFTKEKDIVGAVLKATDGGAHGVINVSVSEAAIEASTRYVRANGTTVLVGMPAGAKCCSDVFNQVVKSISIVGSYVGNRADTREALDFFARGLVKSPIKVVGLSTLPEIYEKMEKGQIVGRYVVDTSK

OCc1ccccc1 [Benzyl alcohol]
turnover number (yeast ADH1): 0.012 s⁻¹ | turnover number (yeast ADH2): 1.9 s⁻¹

OCC(F)(F)F [CF3CH2OH, 2,2,2-trifluoroethanol]
Ki [1]: 27000 µM | increase of dissociation constant (Ki), T45G relative to wild type ([1]; pH 7.3): 10 fold | Ki ([2]; read-out: Ki, dissociation (inhibition) constant, competitive inhibitor of ethanol): 2500 µM

NC(=O)C1=CN([C@@H]2O[C@H](COP(=O)(O)OP(=O)(O)OC[C@H]3O[C@@H](n4cnc5c(N)ncnc54)[C@H](O)[C@@H]3O)[C@@H](O)[C@H]2O)C=CC1 [NADH]
Kq, Michaelis constant for NADH ([1]; pH 7.3, 30 °C): 47 µM | Ki ([1]; read-out: Kiq, dissociation (inhibition) constant for NADH, pH 7.3, 30 °C): 70 µM | Kq, NADH ([3]; pH 5.52, 30 °C): 9.6 µM | Kq, NADH ([3]; pH 6.06, 30 °C): 3.4 µM | Kq, NADH ([3]; pH 6.52, 30 °C): 18 µM | Kq, NADH ([3]; pH 7.00, 30 °C): 13 µM | Kq, NADH ([3]; pH 7.65, 30 °C): 220 µM | Kq, NADH ([3]; pH 8.08, 30 °C): 320 µM | Kq, NADH ([3]; pH 8.96, 30 °C): 910 µM | Ki ([3]; read-out: Kiq, NADH, pH 5.52, 30 °C): 3.8 µM | Ki ([3]; read-out: Kiq, NADH, pH 6.06, 30 °C): 8.6 µM | Ki ([3]; read-out: Kiq, NADH, pH 6.52, 30 °C): 11 µM | Ki ([3]; read-out: Kiq, NADH, pH 7.00, 30 °C): 38 µM | Ki ([3]; read-out: Kiq, NADH, pH 7.65, 30 °C): 156 µM | Ki ([3]; read-out: Kiq, NADH, pH 8.08, 30 °C): 290 µM | Ki ([3]; read-out: Kiq, NADH, pH 8.96, 30 °C): 450 µM | Kq, Michaelis constant for NADH [2]: 94 µM | Ki ([2]; read-out: Kiq, dissociation (inhibition) constant for NADH): 31 µM

NC(=O)c1ccc[n+]([C@@H]2O[C@H](COP(=O)([O-])OP(=O)(O)OC[C@H]3O[C@@H](n4cnc5c(N)ncnc54)[C@H](O)[C@@H]3O)[C@@H](O)[C@H]2O)c1 [NAD^+]
Ka, Michaelis constant for NAD+ ([1]; pH 7.3, 30 °C, 83 mM potassium phosphate, 40 mM KCl, 0.25 mM EDTA): 1500 µM | Ki ([1]; read-out: Kia, dissociation (inhibition) constant for NAD+, pH 7.3, 30 °C): 1600 µM | apparent Kd for NAD+ [4]: about the same as for wild-type enzyme | Ka, NAD+ ([3]; pH 5.60, 30 °C): 660 µM | Ka, NAD+ ([3]; pH 6.05, 30 °C): 510 µM | Ka, NAD+ ([3]; pH 6.54, 30 °C): 720 µM | Ka, NAD+ ([3]; pH 7.00, 30 °C): 690 µM | Ka, NAD+ ([3]; pH 8.07, 30 °C): 2100 µM | Ka, NAD+ ([3]; pH 9.00, 30 °C): 2140 µM | Ka, NAD+ ([3]; pH 9.95, 30 °C): 1580 µM | Ki ([3]; read-out: Kia, NAD+, pH 5.60, 30 °C): 800 µM | Ki ([3]; read-out: Kia, NAD+, pH 6.05, 30 °C): 650 µM | Ki ([3]; read-out: Kia, NAD+, pH 6.54, 30 °C): 720 µM | Ki ([3]; read-out: Kia, NAD+, pH 7.00, 30 °C): 880 µM | Ki ([3]; read-out: Kia, NAD+, pH 8.07, 30 °C): 1130 µM | Ki ([3]; read-out: Kia, NAD+, pH 9.00, 30 °C): 1470 µM | Ki ([3]; read-out: Kia, NAD+, pH 9.95, 30 °C): 2370 µM | Ka, Michaelis constant for NAD+ ([2]; 83 mM potassium phosphate, 40 mM KCl, 0.25 mM EDTA): 160 µM | Ki ([2]; read-out: Kia, dissociation (inhibition) constant for NAD+): 950 µM | Kd (horse liver ADH; read-out: Kd of NAD+, open conformation of the protonated enzyme, pH 8, ref [11]): 670 µM | Kd (horse liver ADH; read-out: observed dissociation constant for NAD+, after deprotonation and the conformational change, ref [52]): 27 µM | Kd [5]: 1000 µM

CC=O [acetaldehyde]
V2/Et, turnover number for acetaldehyde reduction ([1]; pH 7.3, 30 °C): 7.8 s⁻¹ | Kp, CH3CHO ([3]; pH 5.52, 30 °C): 52 mM | V2/Et (acetaldehyde reduction) ([3]; pH 5.52, 30 °C): 21 s⁻¹ | Kp, CH3CHO ([3]; pH 6.06, 30 °C): 46 mM | V2/Et (acetaldehyde reduction) ([3]; pH 6.06, 30 °C): 16 s⁻¹ | Kp, CH3CHO ([3]; pH 6.52, 30 °C): 56 mM | V2/Et (acetaldehyde reduction) ([3]; pH 6.52, 30 °C): 16 s⁻¹ | Kp, CH3CHO ([3]; pH 7.00, 30 °C): 41 mM | V2/Et (acetaldehyde reduction) ([3]; pH 7.00, 30 °C): 9.5 s⁻¹ | Kp, CH3CHO ([3]; pH 7.65, 30 °C): 43 mM | V2/Et (acetaldehyde reduction) ([3]; pH 7.65, 30 °C): 9.3 s⁻¹ | Kp, CH3CHO ([3]; pH 8.08, 30 °C): 35 mM | V2/Et (acetaldehyde reduction) ([3]; pH 8.08, 30 °C): 7.3 s⁻¹ | Kp, CH3CHO ([3]; pH 8.96, 30 °C): 33 mM | V2/Et (acetaldehyde reduction) ([3]; pH 8.96, 30 °C): 4.2 s⁻¹ | V2/Et, turnover number for acetaldehyde reduction [2]: 1800 s⁻¹

CCO [ethanol]
V1/Et, turnover number for ethanol oxidation ([1]; pH 7.3, 30 °C): 0.64 s⁻¹ | V1/Et (ethanol oxidation) ([3]; pH 5.60, 30 °C): 0.11 s⁻¹ | V1/Et (ethanol oxidation) ([3]; pH 6.05, 30 °C): 0.19 s⁻¹ | V1/Et (ethanol oxidation) ([3]; pH 6.54, 30 °C): 0.32 s⁻¹ | V1/Et (ethanol oxidation) ([3]; pH 7.00, 30 °C): 0.42 s⁻¹ | V1/Et (ethanol oxidation) ([3]; pH 8.07, 30 °C): 0.72 s⁻¹ | V1/Et (ethanol oxidation) ([3]; pH 9.00, 30 °C): 0.56 s⁻¹ | V1/Et (ethanol oxidation) ([3]; pH 9.95, 30 °C): 0.44 s⁻¹ | Kb ([3]; read-out: Kb, CH3CH2OH, pH 9.95, 30 °C): 91000 µM | V1/Et, turnover number for ethanol oxidation [2]: 360 s⁻¹ | turnover with ethanol [6]: 0.018 s⁻¹
